Measured values: patent publication US7858635B2 (priority 2005, dated 2010)

Tests used:
M1 muscarinic receptor = molecular target: T1, M1 muscarinic receptor (Homo sapiens, UniProt P11229); test: Functional mobilization of intracellular calcium (FLIPR, Fluo-3), M1-CHO cells; type: cell-based; conditions: compound nos. 1-454; for Emax: 100% efficacy is the maximum response obtained with the Carbachol control, read-out: M1 Efficacy; for M1 Activity: M1-CHO cells, calcium mobilization
T1 construct: expressed in transfected cells; host or cells: CHO cells (M1-CHO, under zeocin and G418 selection)
T1 sequence (P11229 1-460): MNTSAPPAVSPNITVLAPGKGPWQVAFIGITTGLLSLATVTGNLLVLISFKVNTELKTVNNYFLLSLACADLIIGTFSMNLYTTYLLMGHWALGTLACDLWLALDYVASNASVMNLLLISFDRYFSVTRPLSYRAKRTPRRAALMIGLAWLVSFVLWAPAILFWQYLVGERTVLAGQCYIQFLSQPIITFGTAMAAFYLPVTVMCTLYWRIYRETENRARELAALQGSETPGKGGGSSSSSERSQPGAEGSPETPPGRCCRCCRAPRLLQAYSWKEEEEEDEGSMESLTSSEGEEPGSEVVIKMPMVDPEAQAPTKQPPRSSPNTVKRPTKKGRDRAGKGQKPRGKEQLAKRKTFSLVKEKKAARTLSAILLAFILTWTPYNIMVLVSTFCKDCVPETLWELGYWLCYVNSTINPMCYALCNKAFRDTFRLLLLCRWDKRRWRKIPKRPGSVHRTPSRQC
Description: (§1) CHO cells expressing muscarinic receptors (M1 to M5) are grown as monolayers in tissue culture flasks at 37° C. in a humidified atmosphere containing 5% CO2 and passaged every 3-5 days. The growth media is Dulbecco's modified eagles medium (DMEM, Gibco Cat#12430-054), containing 25 mM Hepes and supplemented with Fetal Bovine Serum (Hyclone, cat# SH30071.03), 0.1 mM of MEM non-essential amino acids (GIBCO, Cat# 11140-050), 1 mM MEM Sodium Pyruvate (GIBCO Cat# 11360-070) and 100 units/ml of Penicillin G and 100 μg/ml of Streptomycin (GIBCO Cat# 15140-122). The recombinant muscarinic receptor cell lines are grown under antibiotic pressure with media containing 25 μm/ml zeocin and 500 μg/ml G418 (M1-CHO), 4 μg/ml puromycin, 50 μg/ml zeocin and 2.5 μm/ml blasticidin (M2 and M4-CHO) or 50 μg/ml zeocin and 4 μg/ml puromycin (M3 and M5-CHO).
(§2) Cells are harvested at 80-90% confluence using Versene (GIBCO Cat# 15040-066), collected by centrifugation and seeded 18-24 hrs prior to running the calcium assay at a density of 5,000-10,000 cells/well in […], clear-bottomed 384-well plates (BD Biocoat, poly-D-lysine, Cat#356663). The day of the experiment, the cells are washed with a plate washer (Bioteck Instruments, ELX 405) using bath1 buffer (140-mM NaCl, 4.5-mM KCL, 2-mM CaCl2, 1-mM MgCl2, 10-mM Hepes-Na, 10-mM Glucose, pH 7.4, with NaOH) containing 1 mM Probenecid. Next, the calcium dye Fluo-3 (25 μl/well of Fluo-3 μM at 4 μM, Molecular Probes F-1241, in Bath 1 buffer containing 1 mM Probenecid) is added to the 25 μl of Bath 1 remaining in each well after the plate wash and the dye is loaded at 37° C. in the tissue culture incubator for 60-90 min. The fluorescent dye is removed using the plate washer with Bath 1 containing 1 mM Probenecid, leaving 25 μl/well of this solution after the wash. Alternatively, cells can be loaded with the calcium indicator from Molecular Devices (Calcium 3 Assay Reagents, Cat # R7181) adding 5 μl of a 5× solution dye in Bath 1 containing 1 mM Probenecid (10 ml per dye flask cat# R7182 to generate a solution 20×) to 20 μl of the same buffer. After loading for 60 min, the experiment can be run without having to remove the dye.
(§3) Compounds are prepared at a 2× fold concentration in a 96-well plate (round bottom, Costar Corning cat# 3656), by reconstituting the pre-spotted compounds in bath 1 containing 1 mM probenecid. The final concentration DMSO is 0.5%, and the amount of DMSO is normalized across the assay plate. To determine an agonist action of the compounds on muscarinic receptors, the reconstituted compounds are added (25 μl compound/well) to the cell assay plate (containing 25 μl/well) using the multi-channel robotic system of the FLIPR 3 Instrument (Molecular Devices, Sunnyvale, Calif.). To determine a functional inhibitory action of the compounds on muscarinic receptors, the reconstituted compounds are added (25 μl compound/well) to the assay plate and pre-incubated for 15 min prior to adding 25 μl of Carbachol at 3× the EC80 for each muscarinic subtype. Alternatively, the compounds can be co-applied simultaneously with the agonist. In both assay modes, the fluorescence is recorded for 60 sec (excitation wavelength is […] and emission wavelength 540 nm) using the FLIPR 3 instrument.
(§4) The potency, efficacy and selectivity of the muscarinic compounds were evaluated by screening the compound activity across the whole family (M1 to M5 cells). Compounds were also screened for activity on other proteins such as other GPCRs and ion channels to determine selectivity on M4 receptors.

M4 muscarinic receptor = molecular target: T2, M4 muscarinic receptor (Homo sapiens, UniProt P08173); test: Functional mobilization of intracellular calcium (FLIPR, Fluo-3), M4-CHO cells; type: cell-based; conditions: compound nos. 1-454; for Emax: 100% efficacy is the maximum response obtained with the Carbachol control, read-out: M4 Efficacy; for M4 Activity: M4-CHO cells, calcium mobilization
T2 construct: expressed in transfected cells; host or cells: CHO cells (M4-CHO, under puromycin, zeocin and blasticidin selection)
T2 sequence (P08173 1-479): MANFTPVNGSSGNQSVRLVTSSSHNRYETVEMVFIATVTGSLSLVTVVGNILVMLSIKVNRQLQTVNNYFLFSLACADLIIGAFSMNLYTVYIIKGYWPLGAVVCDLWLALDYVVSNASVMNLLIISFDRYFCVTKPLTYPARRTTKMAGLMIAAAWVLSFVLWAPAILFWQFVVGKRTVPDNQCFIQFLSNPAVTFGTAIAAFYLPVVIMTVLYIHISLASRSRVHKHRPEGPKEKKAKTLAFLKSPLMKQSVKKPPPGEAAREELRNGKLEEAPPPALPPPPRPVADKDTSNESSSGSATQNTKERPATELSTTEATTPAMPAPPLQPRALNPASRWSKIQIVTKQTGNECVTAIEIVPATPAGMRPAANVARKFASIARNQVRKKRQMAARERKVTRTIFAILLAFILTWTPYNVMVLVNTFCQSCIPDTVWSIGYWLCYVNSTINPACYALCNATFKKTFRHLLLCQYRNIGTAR
Description: as §1, §2, §3, §4

Row | Structure (SMILES) | Emax (M1 muscarinic receptor) [%] | M1 Activity (M1 muscarinic receptor) | Emax (M4 muscarinic receptor) [%] | M4 Activity (M4 muscarinic receptor)
1 | Clc1ccc2c(c1)C1(CCN(C3C[C@@H]4CCC3C4)CC1)CO2 (stereo in doubt) [compound 1, 1′-((1S,2R,4R)-bicyclo[2.2.1]heptan-2-yl)-5-chloro-2H-spiro[benzofuran-3,4′-piperidine]] | 65 to 85 | ++ (activity was measured to be between 0.7 μM and 3.0 μM) | > 70 | ++ (activity was measured to be between 0.1 μM and 4.0 μM)
2 | Clc1ccc2c(c1)C1(CCO2)CCN(CC2CC3C=C[C@H]2C3)CC1 (stereo in doubt) [compound 64, 1′-((1R,2R,4R)-bicyclo[2.2.1]hept-5-en-2-ylmethyl)-6-chlorospiro[chroman-4,4′-piperidine]] | < 65 | +++ (activity was measured to be less than or equal to 0.7 μM) | < 55 | ++ (activity was measured to be between 0.1 μM and 4.0 μM)
3 | CC(=O)NC1CC2(CCN(C3CCCCC3)CC2)c2ccccc21 (stereo not drawn) [compound 2] | < 65 | + (activity was measured to be greater than or equal to 3.0 μM) | < 55 | + (activity was measured to be greater than or equal to 4.0 μM)
4 | Cc1ccc2c(c1)C1(CCN(CC3CC4C=CC3C4)CC1)CN2 (stereo not drawn) [compound 3] | 65 to 85 | +++ (activity was measured to be less than or equal to 0.7 μM) | 55 to 70 | ++ (activity was measured to be between 0.1 μM and 4.0 μM)
5 | CC(=O)N[C@H]1CC2(CCN(C3C4CC5CC(C4)CC3C5)CC2)c2ccccc21 (stereo partly drawn) [compound 4] | < 65 | +++ (activity was measured to be less than or equal to 0.7 μM) | < 55 | + (activity was measured to be greater than or equal to 4.0 μM)
6 | Clc1ccc2c(c1)C1(CCN(C3CCCCC3)CC1)CO2 [compound 5] | 65 to 85 | +++ (activity was measured to be less than or equal to 0.7 μM) | > 70 | +++ (activity was measured to be less than or equal to 0.1 μM)
7 | CCOC(=O)N1CCC(N2CCC3(CC2)CN(C(C)=O)c2ccc(-c4cccc(C)c4)cc23)CC1 [compound 6] | 65 to 85 | +++ (activity was measured to be less than or equal to 0.7 μM) | 55 to 70 | ++ (activity was measured to be between 0.1 μM and 4.0 μM)
8 | O=C1Nc2ccccc2C12CCN(CC1CC3C=CC1C3)CC2 (stereo not drawn) [compound 7] | 65 to 85 | +++ (activity was measured to be less than or equal to 0.7 μM) | > 70 | ++ (activity was measured to be between 0.1 μM and 4.0 μM)
9 | CC(=O)NC1CC2(CCN(C3CC4CCC(C4)C3)CC2)c2ccccc21 (stereo not drawn) [compound 8] | < 65 | ++ (activity was measured to be between 0.7 μM and 3.0 μM) | 55 to 70 | ++ (activity was measured to be between 0.1 μM and 4.0 μM)
10 | CCOC(=O)N1C2CCC1CC(N1CCC3(CC1)CN(C(C)=O)c1ccc(C)cc13)C2 (stereo not drawn) [compound 9] | 65 to 85 | +++ (activity was measured to be less than or equal to 0.7 μM) | 55 to 70 | + (activity was measured to be greater than or equal to 4.0 μM)
11 | CCOC(=O)N1CCC(N2CCC3(CC2)CN(C(C)=O)c2ccc(-c4ccc(NC(C)=O)cc4)cc23)CC1 [compound 10] | 65 to 85 | ++ (activity was measured to be between 0.7 μM and 3.0 μM) | 55 to 70 | ++ (activity was measured to be between 0.1 μM and 4.0 μM)
12 | C=Cc1ccc2c(c1)C1(CCN(C3CCN(C(=O)OCC)CC3)CC1)CN2C(C)=O [compound 11] | < 65 | + (activity was measured to be greater than or equal to 3.0 μM) | < 55 | + (activity was measured to be greater than or equal to 4.0 μM)
13 | CCC(=O)CCN1CC2(CCN(C[C@@H]3C[C@H]4C=C[C@H]3C4)CC2)c2cc(F)ccc21 [compound 12] | < 65 | +++ (activity was measured to be less than or equal to 0.7 μM) | < 55 | ++ (activity was measured to be between 0.1 μM and 4.0 μM)
14 | Fc1ccc2c(c1)C1(CCN(CC3CCC4CCC3C4)CC1)CN2 (stereo not drawn) [compound 13] | 65 to 85 | ++ (activity was measured to be between 0.7 μM and 3.0 μM) | < 55 | + (activity was measured to be greater than or equal to 4.0 μM)
15 | CC(=O)N1CC2(CCN(CC3CCN(C(=O)O[C@@H]4CCOC4)CC3)CC2)c2cc(F)ccc21 [compound 14] | 65 to 85 | +++ (activity was measured to be less than or equal to 0.7 μM) | > 70 | +++ (activity was measured to be less than or equal to 0.1 μM)
16 | CS(=O)(=O)N1CC2(CCN(C3CC4CCC(C3)N4C(=O)O[C@@H]3CCOC3)CC2)c2cc(F)ccc21 (stereo partly drawn) [compound 16] | 65 to 85 | +++ (activity was measured to be less than or equal to 0.7 μM) | 55 to 70 | +++ (activity was measured to be less than or equal to 0.1 μM)
17 | CCOC(=O)N1CCC(N2CCC3(CC2)CN(C(=O)C2CCCC2)c2ccc(F)cc23)CC1 [compound 17] | < 65 | ++ (activity was measured to be between 0.7 μM and 3.0 μM) | 55 to 70 | ++ (activity was measured to be between 0.1 μM and 4.0 μM)
18 | c1ccc2c(c1)CCC21CCN(CC2CCOCC2)CC1 [compound 18] | < 65 | +++ (activity was measured to be less than or equal to 0.7 μM) | > 70 | ++ (activity was measured to be between 0.1 μM and 4.0 μM)
